Data: patent US9499550B2 (BRISTOL-MYERS SQUIBB COMPANY, priority 2012, dated 2016)
pEC50: −log10 of the molar value. Read-outs that look alike come from different tables or passages of the source.

What was measured:
[1] = test system: HCV genotype 1b (Con1) replicon in HUH-7 cells; assay: HCV replicon luciferase reporter assay, genotype 1b; assay type: cell-based; details: Hepatitis C virus, Huh-7, 72 h, 3 days incubation
Outline: (§1)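 Replicon inhibition for both genotypes was measured as Renilla luciferase signal (EnduRen, 7.5 μM final, 2 h) after 3-day, 37° C exposure of replicon-bearing HUH-7 cells in 4% FCS DMEM, 0.5% DMSO. The 1b construct carries S1179I; the 1a H77 construct carries P1496L and S2204I. Twenty-point, 3-fold dilutions were fitted four-parametrically for EC50, and CC50 was taken from multiplexed Cell Titer-Blue.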

[2] = test system: HCV genotype 1a (H77 strain) replicon in HUH-7 cells; assay: HCV replicon luciferase reporter assay, genotype 1a; assay type: cell-based; details: Hepatitis C virus, Huh-7, 72 h, 3 days incubation
Outline: as §1

[3] = HCV genotype 1b replicon luciferase, read-out: LE_1b (EC50, range)
[4] = HCV genotype 1a replicon luciferase, read-out: LE_1a (EC50, range)
[5] = HCV genotype 1b replicon luciferase assay, range class, read-out: LE_1b (EC50, range)
[6] = HCV genotype 1a replicon luciferase assay, range class, read-out: LE_1a (EC50, range)

Compound | pEC50 [1, 3] | pEC50 [2, 4] | pEC50 [1, 5] | pEC50 [2, 6] | pEC50 ([1]; HCV genotype 1b replicon luciferase, read-out: LE_1b (EC50)) | pEC50 ([2]; HCV genotype 1a replicon luciferase, read-out: LE_1a (EC50))
CC(C)Oc1cc2ccccc2c(O[C@@H]2C[C@H]3C(=O)N[C@]4(C(=O)NS(=O)(=O)C5(C)CC5)C[C@H]4/C=C\CC[C@@H](C)C[C@@H](C)[C@H](NC(=O)OC(C)(C)C(F)(F)F)C(=O)N3C2)n1 [Compound 6104, 1,1,1-trifluoro-2-methylpropan-2-yl((2R,6S,7R,9R,13aS,14aR,16aS,Z)-2-((3-isopropoxyisoquinolin-1-yl)oxy)-7,9-dimethyl-14a-(((1-methylcyclopropyl)sulfonyl)carbamoyl)-5,16-dioxo-1,2,3,5,6,7,8,9,10,11,13a,14,14a,15,16,16a-hexadecahydrocyclopropa[e]pyrrolo[1,2-a][1,4]diazacyclopentadecin-6-yl)carbamate] | 9.00 to 9.29 | 8.30 to 9.00 | – | – | – | –
CCOc1cc2ccnc(O[C@@H]3C[C@H]4C(=O)N[C@]5(C(=O)NS(=O)(=O)C6(CF)CC6)C[C@H]5/C=C\CC[C@H](C)C[C@@H](C)[C@H](NC(=O)OC(C)(C)C)C(=O)N4C3)c2cc1F [Compound 5410, tert-butyl ((2R,6S,7R,9S,13aS,14aR,16aS,Z)-2-((6-ethoxy-7-fluoroisoquinolin-1-yl)oxy)-14a-(((1-(fluoromethyl)cyclopropyl)sulfonyl)carbamoyl)-7,9-dimethyl-5,16-dioxo-1,2,3,5,6,7,8,9,10,11,13a,14,14a,15,16,16a-hexadecahydrocyclopropa[e]pyrrolo[1,2-a][1,4]diazacyclopentadecin-6-yl)carbamate] | 8.30 to 9.00 | 7.46 to 8.30 | – | – | – | –
CCOc1cc2cc(OC)ccc2c(O[C@@H]2C[C@H]3C(=O)N[C@]4(C(=O)NS(=O)(=O)C5(C)CC5)C[C@H]4/C=C\CC[C@@H](C)C[C@@H](C)[C@H](NC(=O)OC(C)(C)C(C)(F)F)C(=O)N3C2)n1 [Compound 3200, 3,3-difluoro-2-methylbutan-2-yl((2R,6S,7R,9R,13aS,14aR,16aS,Z)-2-((3-ethoxy-6-methoxyisoquinolin-1-yl)oxy)-7,9-dimethyl-14a-(((1-methylcyclopropyl)sulfonyl)carbamoyl)-5,16-dioxo-1,2,3,5,6,7,8,9,10,11,13a,14,14a,15,16,16a-hexadecahydrocyclopropa[e]pyrrolo[1,2-a][1,4]diazacyclopentadecin-6-yl)carbamate] | 9.00 to 9.29 | 9.00 to 9.29 | – | – | – | –
COc1cnc(O[C@@H]2C[C@H]3C(=O)N[C@]4(C(=O)NS(=O)(=O)C5(CF)CC5)C[C@H]4/C=C\CC[C@@H](C)C[C@@H](C)[C@H](NC(=O)OC(C)(C)CC(F)(F)F)C(=O)N3C2)c2ccccc12 [Compound 1062, 4,4,4-trifluoro-2-methylbutan-2-yl((2R,6S,7R,9R,13aS,14aR,16aS,Z)-14a-(((1-(fluoromethyl)cyclopropyl)sulfonyl)carbamoyl)-2-((4-methoxyisoquinolin-1-yl)oxy)-7,9-dimethyl-5,16-dioxo-1,2,3,5,6,7,8,9,10,11,13a,14,14a,15,16,16a-hexadecahydrocyclopropa[e]pyrrolo[1,2-a][1,4]diazacyclopentadecin-6-yl)carbamate] | – | – | > 8.26 | > 8.26 | – | –
CCn1nc(O[C@@H]2C[C@H]3C(=O)N[C@]4(C(=O)NS(=O)(=O)C5(C)CC5)C[C@H]4/C=C\CC[C@H](C)C[C@@H](C)[C@H](NC(=O)c4ccc(N(C)C)cc4)C(=O)N3C2)c2ccccc2c1=O [Compound 5060, (2R,6S,7R,9S,13aS,14aR,16aS,Z)-6-(4-(dimethylamino)benzamido)-2-((3-ethyl-4-oxo-3,4-dihydrophthalazin-1-yl)oxy)-7,9-dimethyl-N-((1-methylcyclopropyl)sulfonyl)-5,16-dioxo-1,2,3,5,6,7,8,9,10,11,13a,14,14a,15,16,16a-hexadecahydrocyclopropa[e]pyrrolo[1,2-a][1,4]diazacyclopentadecine-14a-carboxamide] | < 7.06 | < 7.06 | – | – | 6.02 | ≤ 6.00
COc1ccc2c(O[C@@H]3C[C@H]4C(=O)N[C@]5(C(=O)NS(=O)(=O)C6(C)CC6)C[C@H]5/C=C\CC[C@@H](C)C[C@@H](C)[C@H](NC(=O)OC(C)(C)C(F)(F)F)C(=O)N4C3)nc(-c3ccc(OC(C)C)cc3)c(OC)c2c1 [Compound 5348, 1,1,1-trifluoro-2-methylpropan-2-yl((2R,6S,7R,9R,13aS,14aR,16aS,Z)-2-((3-(4-isopropoxyphenyl)-4,6-dimethoxyisoquinolin-1-yl)oxy)-7,9-dimethyl-14a-(((1-methylcyclopropyl)sulfonyl)carbamoyl)-5,16-dioxo-1,2,3,5,6,7,8,9,10,11,13a,14,14a,15,16,16a-hexadecahydrocyclopropa[e]pyrrolo[1,2-a][1,4]diazacyclopentadecin-6-yl)carbamate] | > 8.26 | > 8.26 | – | – | – | –
C[C@H]1CC/C=C\[C@@H]2C[C@@]2(C(=O)NS(=O)(=O)C2(C)CC2)NC(=O)[C@@H]2C[C@@H](Oc3nc(OCC(F)F)cc4c(Cl)cccc34)CN2C(=O)[C@@H](NC(=O)OC(C)(C)C(F)(F)F)[C@H](C)C1 [Compound 1097, 1,1,1-trifluoro-2-methylpropan-2-yl((2R,6S,7R,9S,13aS,14aR,16aS,Z)-2-((5-chloro-3-(2,2-difluoroethoxyl)isoquinolin-1-yl)oxy)-7,9-dimethyl-14a-(((1-methylcyclopropyl)sulfonyl)carbamoyl)-5,16-dioxo-1,2,3,5,6,7,8,9,10,11,13a,14,14a,15,16,16a-hexadecahydrocyclopropa[e]pyrrolo[1,2-a][1,4]diazacyclopentadecin-6-yl)carbamate] | – | – | > 8.26 | 6.99 to 8.32 | – | –
COc1ccc2c(O[C@@H]3C[C@H]4C(=O)N[C@]5(C(=O)NS(=O)(=O)C6(CF)CC6)C[C@H]5/C=C\CC[C@@H](C)C[C@@H](C)[C@H](NC(=O)OC(C)(C)C(F)(F)F)C(=O)N4C3)nc(C(F)(F)F)cc2c1 [Compound 1169, 1,1,1-trifluoro-2-methylpropan-2-yl((2R,6S,7R,9R,13aS,14aR,16aS,Z)-14a-(((1-(fluoromethyl)cyclopropyl)sulfonyl)carbamoyl)-2-((6-methoxy-3-(trifluoromethyl)isoquinolin-1-yl)oxy)-7,9-dimethyl-5,16-dioxo-1,2,3,5,6,7,8,9,10,11,13a,14,14a,15,16,16a-hexadecahydrocyclopropa[e]pyrrolo[1,2-a][1,4]diazacyclopentadecin-6-yl)carbamate] | – | – | > 8.26 | > 8.26 | – | –
COc1ccc2c(O[C@@H]3C[C@H]4C(=O)N[C@]5(C(=O)NS(=O)(=O)C6CC6)C[C@H]5/C=C\CC[C@@H](C)C[C@@H](C)[C@H](NC(=O)O[C@@H]5C[C@@H]6C[C@@H]6C5)C(=O)N4C3)nc(-c3ccccc3)cc2c1 [Compound 5188, (1R,3r,5S)-bicyclo[3.1.0]hexan-3-yl((2R,6S,7R,9R,13aS,14aR,16aS,Z)-14a-((cyclopropylsulfonyl)carbamoyl)-2-((6-methoxy-3-phenylisoquinolin-1-yl)oxy)-7,9-dimethyl-5,16-dioxo-1,2,3,5,6,7,8,9,10,11,13a,14,14a,15,16,16a-hexadecahydrocyclopropa[e]pyrrolo[1,2-a][1,4]diazacyclopentadecin-6-yl)carbamate] | > 8.26 | > 8.26 | – | – | – | –
CCOc1ccc2c(O[C@@H]3C[C@H]4C(=O)N[C@]5(C(=O)NS(=O)(=O)C6(C)CC6)C[C@H]5/C=C\CC[C@@H](C)C[C@@H](C)[C@H](NC(=O)O[C@H](C)C(F)(F)F)C(=O)N4C3)nccc2c1 [Compound 5142, (R)-1,1,1-trifluoropropan-2-yl ((2R,6S,7R,9R,13aS,14aR,16aS,Z)-2-((6-ethoxyisoquinolin-1-yl)oxy)-7,9-dimethyl-14a-(((1-methylcyclopropyl)sulfonyl)carbamoyl)-5,16-dioxo-1,2,3,5,6,7,8,9,10,11,13a,14,14a,15,16,16a-hexadecahydrocyclopropa[e]pyrrolo[1,2-a][1,4]diazacyclopentadecin-6-yl)carbamate] | > 8.26 | > 8.26 | – | – | – | –
CC[C@@H]1C[C@H](C)CC/C=C\[C@@H]2C[C@@]2(C(=O)NS(=O)(=O)C2(C)CC2)NC(=O)[C@@H]2C[C@@H](Oc3nccc4cc(OC)c(F)cc34)CN2C(=O)[C@H]1NC(=O)N1CCOCC1 [Compound 4333, N-((2R,6S,7R,9R,13aS,14aR,16aS,Z)-7-ethyl-2-((7-fluoro-6-methoxyisoquinolin-1-yl)oxy)-9-methyl-14a-(((1-methylcyclopropyl)sulfonyl)carbamoyl)-5,16-dioxo-1,2,3,5,6,7,8,9,10,11,13a,14,14a,15,16,16a-hexadecahydrocyclopropa[e]pyrrolo[1,2-a][1,4]diazacyclopentadecin-6-yl)morpholine-4-carboxamide] | 7.46 to 8.30 | 7.46 to 8.30 | – | – | – | –
CCOc1cc2ccccc2c(O[C@@H]2C[C@H]3C(=O)N[C@]4(C(=O)NS(=O)(=O)C5(C)CC5)C[C@H]4/C=C\CC[C@@H](C)C[C@@H](C)[C@H](NC(=O)OC(C)(C)C(F)(F)F)C(=O)N3C2)n1 [Compound 6100, 1,1,1-trifluoro-2-methylpropan-2-yl((2R,6S,7R,9R,13aS,14aR,16aS,Z)-2-((3-ethoxyisoquinolin-1-yl)oxy)-7,9-dimethyl-14a-(((1-methylcyclopropyl)sulfonyl)carbamoyl)-5,16-dioxo-1,2,3,5,6,7,8,9,10,11,13a,14,14a,15,16,16a-hexadecahydrocyclopropa[e]pyrrolo[1,2-a][1,4]diazacyclopentadecin-6-yl)carbamate] | 9.30 to 10.00 | 8.30 to 9.00 | – | – | – | –
